How the values were obtained:
[1] = biological target: T1, Human LBAT (Homo sapiens, UniProt Q14973); assay: LBAT (h/m) assay, human LBAT-overexpressing cells, 3H-taurocholic acid uptake; type: cell-based; conditions: 0.3 μM 3H-taurocholic acid and 7.5 μM cold taurocholic acid, 20 minutes, read-out: hLBAT IC50
T1 construct: expressed in transfected cells; Geneticin selection
T1 sequence (Q14973 1-349): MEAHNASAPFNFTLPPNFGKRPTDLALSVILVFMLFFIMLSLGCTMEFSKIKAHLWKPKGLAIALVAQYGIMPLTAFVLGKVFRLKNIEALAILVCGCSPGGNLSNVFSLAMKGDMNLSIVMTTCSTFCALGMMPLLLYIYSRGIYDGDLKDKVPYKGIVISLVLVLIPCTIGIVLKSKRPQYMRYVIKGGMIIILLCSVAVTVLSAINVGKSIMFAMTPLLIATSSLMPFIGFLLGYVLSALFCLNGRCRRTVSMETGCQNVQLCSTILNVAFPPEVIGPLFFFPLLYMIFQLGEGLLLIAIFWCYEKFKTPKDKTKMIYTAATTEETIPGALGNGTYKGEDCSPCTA
Description: 20,000 cells (Human or Mouse LBAT-overexpressing cells) were seeded in 96-wells plate (Corning CLS3809) in 100 μL MEM-alpha medium (Gibco 12571-063) supplemented with 10% FBS (Gibco 10438026) containing Geneticin (Gibco 10131-027) (1 mg/mL) and incubated at 37° C. in 5% CO2 for 24 hours. After incubation, media was decanted from the wells and cells were washed two times with 300 μL of basal MEM-alpha medium (FBS-free). After decanting basal MEM-alpha medium each time, plates were tapped against paper towel to ensure maximum removal of residual media.
For human LBAT, incubation mix was prepared by adding test inhibitor dilutions (3-fold serial dilution in DMSO (Sigma D2650), 10 points) in MEM-alpha (without FBS) containing 0.3 μM 3H-taurocholic acid (ARC ART-1368) and 7.5 μM cold taurocholic acid (Sigma T4009) (maintaining 0.2% final DMSO concentration). For mouse LBAT, incubation mix was prepared by adding test inhibitor dilutions (3-fold serial dilution in DMSO, 10 points) in MEM-alpha (without FBS) containing 0.3 μM 3H-taurocholic acid and 25 μM cold taurocholic acid maintaining 0.2% final DMSO concentration).
50 μL of incubation mix containing test inhibitors was then added to the wells (in duplicate) and the plates were incubated for 20 minutes in a CO2 incubator at 37° C. After incubation, the reaction was stopped by keeping the plates on ice water mix for 2-3 minutes and then the incubation mix was aspirated completely from the wells. The wells were washed two times with 250 μL of chilled unlabeled 1 mM taurocholic acid dissolved in HEPES (Gibco 15630080)-buffered (10 mM) HBSS (Gibco 14175079) (pH 7.4). The plates were tapped against a paper towel after every wash to ensure maximum removal of blocking buffer.
100 μL of MicroScint-20 (PerkinElmer 6013621) was added to the wells and kept overnight at room temperature before reading the plates in TopCount NXT™ Microplate Scintillation and Luminescence Counter from PerkinElmer under 3H Test protocol (set at 120 seconds reading time per well, with normal plate orientation).
(§1) All test compounds were provided in powder form at room temperature. 10 mM DMSO stocks of the test compounds were prepared, aliquoted and stored at −20° C. From the 10 mM DMSO stock of the compounds, a 3-fold serial dilution in DMSO was prepared to get a total of 10 dilutions of the test compounds. 0.5 μL of this dilution in DMSO was added to 250 μL of FBS-free basal media containing 3H-taurocholic acid and cold taurocholic acid to prepare the incubation mixture.

[2] = biological target: T2, Human IBAT (Homo sapiens, UniProt Q12908); assay: IBAT (h/m) assay, human IBAT-overexpressing cells, 3H-taurocholic acid uptake; type: cell-based; conditions: highest test concentration 10 μM, 20 minutes, read-out: hIBAT IC50
T2 construct: expressed in transfected cells; Puromycin selection
T2 sequence (Q12908 1-348): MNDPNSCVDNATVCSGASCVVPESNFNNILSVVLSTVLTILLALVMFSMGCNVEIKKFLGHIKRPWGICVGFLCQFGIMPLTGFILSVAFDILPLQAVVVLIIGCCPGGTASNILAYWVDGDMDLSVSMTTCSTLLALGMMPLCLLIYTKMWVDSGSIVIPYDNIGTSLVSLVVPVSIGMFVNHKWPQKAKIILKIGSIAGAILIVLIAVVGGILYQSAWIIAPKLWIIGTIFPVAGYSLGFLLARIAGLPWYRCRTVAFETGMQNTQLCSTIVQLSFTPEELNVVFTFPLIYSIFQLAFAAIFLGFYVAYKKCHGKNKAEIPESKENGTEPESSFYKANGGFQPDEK
Description: 10,000 cells (Human or Mouse IBAT-overexpressing cells) were seeded in 96-wells plate (Corning CLS3809) in 200 μL MEM-alpha medium (Gibco 12571-063) supplemented with 10% FBS (Gibco 10438026) containing Puromycin (Gibco A1113803) (10 μg/mL) and incubated at 37° C. in 5% CO2 for 48 hours. After incubation, media was decanted from the wells and cells were washed two times with 300 μL of basal MEM-alpha medium (FBS-free). After decanting basal MEM-alpha medium each time, plates were tapped against paper towel to ensure maximum removal of residual media. Test inhibitor dilutions (highest test concentration being 10 μM, 3-fold serial dilution, 10 points) prepared in DMSO (Sigma D2650) were added in incubation mix (maintaining 0.2% final DMSO concentration) containing 0.25 μM 3H-taurocholic acid (ARC ART-1368) and 5 μM of cold taurocholic acid (Sigma T4009). 50 μL of incubation mix containing test inhibitors was then added to the wells (in duplicate) and the plates were incubated for 20 minutes in a CO2 incubator at 37° C. After incubation, the reaction was stopped by keeping the plates on ice water mix for 2-3 minutes and then the incubation mix was aspirated completely from the wells. The wells were washed two times with 250 μL of chilled unlabeled 1 mM taurocholic acid dissolved in HEPES (Gibco 15630080)-buffered (10 mM) HBSS (Gibco 14175079) (pH 7.4). The plates were tapped against a paper towel after every wash to ensure maximum removal of blocking buffer.
100 μL of MicroScint-20 (PerkinElmer 6013621) was added to the wells and kept overnight at room temperature before reading the plates in TopCount NXT™ Microplate Scintillation and Luminescence Counter from PerkinElmer under 3H Test protocol (set at 120 seconds reading time per well).
as §1

[3] = Bidirectional permeability assay (Caco-2 cells); type: in vitro ADME; conditions: human, 10 μM in FaSSIF buffer; for Papp A→B at 120 min, 10 μM: Caco-2, pH 7.4, absorptive direction (A2B); for Papp B→A at 120 min, 10 μM: Caco-2, pH 7.4, secretory direction (B2A)
Text: HepaRG-Based Assay Protocol

[4] = Bioavailability studies; type: in vivo, mice (C57BL/6); conditions: male, mouse, plasma; C57BL/6 mice; single intravenous dose 1 mg/kg and single oral dose 10 mg/kg
Description: Male mice (C57BL/6 or CD1) or Wistar rats of 8-9 weeks old were used. For each test compound, two groups of 3 animals each were used. One group was administered a single intravenous dose of 1 mg/kg (vehicle 100% DMSO) through the tail vein and the other group was administered a single oral dose of 10 mg/kg through gavage needle. The group that was administered an oral dose was fasted overnight. Blood samples were collected after 0.083, 0.25, 0.5, 1, 2, 4, 6, 8 and 24 hours following intravenous administration, and after 0.25, 0.5, 1, 2, 4, 6, 8 and 24 hours following oral administration. Blood samples were taken from saphenous vein. 0.2% EDTA was used as the anticoagulant. The samples were analyzed by a discovery grade bioanalytical method developed for the estimation of test compound in plasma, using an LC-MS/MS system.

[5] = test system: OATP KO mice; assay: Effect of LBAT selective compounds on serum bile acid levels in OATP KO mice; type: in vivo; conditions: for effect on serum bile acid levels: oral administration, FIGS. 1 to 4
Text: Male OATP KO mice (Oatp1a/1b cluster knockout mice, Taconic, USA) aged 8 to 9 weeks were used in the studies. After completion of quarantine and acclimatization period, animals were randomized based on body weight into experimental groups (n=4 mice in each). On the experimental day, a baseline blood sample was collected followed by oral dosing of vehicle (0.5% CMC, 0.1% Tween 80) or compound of Example 3, 6, 13 or 15 at the indicated doses. Blood samples were then collected at various time points after dose (indicated in each graph). Blood was allowed to clot, and serum was collected by centrifugation at 3000 g, 4° C. for 15 minutes and stored at −80° C. for further analysis. The total bile acid concentration in each serum sample was determined by using the CELL BIOLABS Total Bile Acids kit (STA631) according to manufacturer's instructions. Mean±SEM, n=4.

| IC50 [1] [nM] | IC50 [2] [nM] | Papp A→B at 120 min, 10 μM [3] [×10⁻⁶ cm/s] | Papp B→A at 120 min, 10 μM [3] [×10⁻⁶ cm/s] | bioavailability [4] [%] | Structure (SMILES) | effect on serum bile acid levels [5] | serum bile acids levels ([5]; oral 30 mg/kg, within one hour after dosing) |
| --- | --- | --- | --- | --- | --- | --- | --- |
| 9.9 | ≥ 10000 | 25.6 | 19.1 | – | CCCCC1CN(c2ccccc2)c2cc(SC)c(O/C=C/C(=O)O)cc2S(=O)(=O)C1 (racemic) [Example 1, (E)-3-((3-butyl-7-(methylthio)-1,1-dioxido-5-phenyl-2,3,4,5-tetrahydro-1,5-benzothiazepin-8-yl)oxy)acrylic Acid] | – | – |
| 1 | 3060 | 12.6 | 9.3 | – | CCCCC1CN(c2ccc(F)cc2)c2cc(SCC)c(O/C=C/C(=O)O)cc2S(=O)(=O)N1C (racemic) [Example 23, (E)-3-((3-butyl-7-(ethylthio)-5-(4-fluorophenyl)-2-methyl-1,1-dioxido-2,3,4,5-tetrahydro-1,2,5-benzothiadiazepin-8-yl)oxy)acrylic Acid] | – | – |
| 4.8 | – | 24 | 18.8 | 50 | CCCC[C@H]1CN(c2ccccc2)c2cc(SC)c(O/C=C/C(=O)O)cc2S(=O)(=O)C1 (single isomer, unassigned) [Example 3] | increased serum bile acid levels | – |
| 1.4 | 1440 | 2.7 | 5.5 | 26 | CCCC[C@@H]1CN(c2ccccc2)c2cc(SC)c(O/C=C(\F)C(=O)O)cc2S(=O)(=O)C1 (single isomer, unassigned) [Example 6] | increased serum bile acid levels | – |
| 0.6 | 568 | 3.1 | 9.6 | 61 | CCCC[C@@H]1CN(c2ccccc2)c2cc(SC)c(O/C=C(\F)C(=O)O)cc2S(=O)(=O)N1C (single isomer, unassigned) [Example 13] | increased serum bile acids in a dose-dependent manner | about 100 μmol/L |
| 2.2 | – | 14.1 | 13 | 50 | CCCC[C@H]1CN(c2ccccc2)c2cc(SC)c(O/C=C/C(=O)O)cc2S(=O)(=O)N1C (single isomer, unassigned) [Example 15] | increased serum bile acid levels | – |
| 2.4 | 5280 | 15 | 9.7 | – | CCCC[C@H]1CN(c2ccccc2)c2cc(SCC)c(O/C=C/C(=O)O)cc2S(=O)(=O)N1C (single isomer, unassigned) [Example 18] | – | – |
| 1.9 | 1510 | 2.4 | 6 | – | CCCCC1CN(c2ccccc2)c2cc(SC)c(O/C=C(\F)C(=O)O)cc2S(=O)(=O)C1 (stereo not shown) [Example 4, (Z)-3-((3-butyl-7-(methylthio)-1,1-dioxido-5-phenyl-2,3,4,5-tetrahydro-1,5-benzothiazepin-8-yl)oxy)-2-fluoroacrylic Acid] | – | – |
| 1 | 1140 | 0.5 | 1.9 | – | CCCCC1CN(c2ccccc2)c2cc(SC)c(O/C=C(\F)C(=O)O)cc2S(=O)(=O)N1 (stereo not shown) [Example 10, (Z)-3-((3-butyl-7-(methylthio)-1,1-dioxido-5-phenyl-2,3,4,5-tetrahydro-1,2,5-benzothiadiazepin-8-yl)oxy)-2-fluoroacrylic Acid] | – | – |
